Assay results taken from ChEMBL document CHEMBL4052759, “Discovery of DS79182026: A potent orally active hepcidin production inhibitor” (Bioorg Med Chem Lett, 2017).

System: HepG2
Assay: Inhibition of human recombinant BMP6-stimulated hepcidin mRNA expression in human HepG2 cells after 6 hrs by qRT-PCR analysis
Format: functional, cell-based
Conditions: HepG2, 6 h

IC50 | Compound
2600 nM | COC(=O)Nc1noc2cc(-c3c(-c4cc(C)ccn4)n[nH]c3C)ccc12
42 nM | COC(=O)Nc1noc2cc(-c3c(-c4cccc(C)n4)n[nH]c3C)ccc12
40 nM | CCOC(=O)Nc1noc2cc(-c3c(-c4ccccn4)n[nH]c3C)ccc12
720 nM | CCNC(=O)Nc1noc2cc(-c3c(C4CC4)n[nH]c3C)ccc12
2600 nM | COC(=O)Nc1noc2cc(-c3c(-c4cccc(C(C)C)n4)n[nH]c3C)ccc12
4800 nM | COC(=O)Nc1noc2cc(-c3c(-c4ncccc4C)n[nH]c3C)ccc12
400 nM | O=C(Nc1n[nH]c2cc(-c3ccc(O)cc3)ccc12)C1CC1
47 nM | Cc1[nH]nc(-c2ccccn2)c1-c1ccc2c(NC(=O)OCCF)noc2c1
330 nM | Cc1n[nH]c(C)c1-c1ccc2c(NC(=O)C3CC3)n[nH]c2c1
260 nM | Cc1n[nH]c(C)c1-c1ccc2c(NC(=O)c3ccc(OCCN4CCCCC4)cc3)n[nH]c2c1
> 3000 nM | O=C(Nc1n[nH]c2cc(-c3ccc4[nH]cnc4c3)ccc12)C1CC1
210 nM | COC(=O)Nc1noc2cc(-c3c(-c4cnccn4)n[nH]c3C)ccc12
1100 nM | COCc1n[nH]c(C)c1-c1ccc2c(NC(=O)OC)noc2c1
> 10000 nM | COC(=O)Nc1noc2cc(-c3c(C(C)(C)C)n[nH]c3C)ccc12
2900 nM | COC(=O)Nc1noc2cc(-c3c(-c4ccncn4)n[nH]c3C)ccc12
7200 nM | O=C(Nc1n[nH]c2cc(-c3ccncc3)ccc12)C1CC1
> 30000 nM | O=C1Cc2cc(-c3ccc4c(NC(=O)C5CC5)n[nH]c4c3)ccc2N1
69 nM | COCCOC(=O)Nc1noc2cc(-c3c(-c4ccccn4)n[nH]c3C)ccc12

IC50 | Compound
4400 nM | CNC(=O)c1n[nH]c(C)c1-c1ccc2c(NC(=O)OC)noc2c1
1000 nM | Cc1noc(C)c1-c1ccc2c(NC(=O)C3CC3)n[nH]c2c1
130 nM | O=C(Nc1n[nH]c2cc(-c3ccc(O)cc3)ccc12)c1ccc(OCCN2CCOCC2)cc1
540 nM | COC(=O)Nc1noc2cc(-c3c(-c4ccccc4)n[nH]c3C)ccc12
> 30000 nM | O=C(Nc1n[nH]c2cc(-c3cc[nH]c3)ccc12)C1CC1
460 nM | CCc1n[nH]c(C)c1-c1ccc2c(NC(=O)OC)noc2c1
580 nM | COC(=O)Nc1noc2cc(-c3c(C)n[nH]c3C)ccc12
350 nM | COC(=O)Nc1noc2cc(-c3c(-c4cccnn4)n[nH]c3C)ccc12
160 nM | Cc1[nH]nc(-c2ccccn2)c1-c1ccc2c(NC(=O)OC(C)C)noc2c1
2900 nM | COC(=O)Nc1noc2cc(-c3c(C(=O)OC)n[nH]c3C)ccc12
400 nM | COC(=O)Nc1noc2cc(-c3c(-c4cccc(OC)n4)n[nH]c3C)ccc12
1200 nM | COC(=O)Nc1noc2cc(-c3c(C(C)O)n[nH]c3C)ccc12 (centres undefined)
82 nM | Cc1[nH]nc(C2CC2)c1-c1ccc2c(NC(=O)C3CC3)n[nH]c2c1
11000 nM | O=C(Nc1n[nH]c2cc(-c3cnc4[nH]ccc4c3)ccc12)C1CC1
1400 nM | Cc1[nH]nc(C2CC2)c1-c1ccc2c(N)noc2c1
910 nM | COC(=O)Nc1noc2cc(-c3c(C(C)C)n[nH]c3C)ccc12
210 nM | COC(=O)Nc1noc2cc(-c3c(C4CC4)n[nH]c3C)ccc12

System: not listed separately
Assay: Metabolic stability in mouse liver microsomes assessed as […] by measuring parent compound remaining at 1 uM after 0.5 hrs by LC-MS/MS analysis
Format: ADME
Conditions: read-out: Stability

remaining at 0.5 h, 1 µM | Compound
76% | O=C(Nc1n[nH]c2cc(-c3ccc(O)cc3)ccc12)c1ccc(OCCN2CCOCC2)cc1

System: not listed separately
Assay: Cmax in C57BL/6J mouse at 30 mg/kg, po by LC-MS/MS analysis
Format: ADME, organism-based
Parameters: dose 30 mg/kg, route oral
Conditions: in vivo

Cmax | Compound
320 ng/mL | O=C(Nc1n[nH]c2cc(-c3ccc(O)cc3)ccc12)c1ccc(OCCN2CCOCC2)cc1

System: not listed separately
Assay: Tmax in C57BL/6J mouse at 30 mg/kg, po by LC-MS/MS analysis
Format: ADME, organism-based
Conditions: in vivo

Tmax | Compound
1.5 h | O=C(Nc1n[nH]c2cc(-c3ccc(O)cc3)ccc12)c1ccc(OCCN2CCOCC2)cc1

System: not listed separately
Assay: AUC in C57BL/6J mouse at 30 mg/kg, po by LC-MS/MS analysis
Format: ADME, organism-based
Conditions: in vivo

AUC | Compound
890 ng·h/mL | O=C(Nc1n[nH]c2cc(-c3ccc(O)cc3)ccc12)c1ccc(OCCN2CCOCC2)cc1
